In paper PMC7180638, “Synthesis of Pyrrolidine Monocyclic Analogues of Pochonicine and Its Stereoisomers: Pursuit of Simplified Structures and Potent β-N-Acetylhexosaminidase Inhibition” (Molecules, 2020):
Structures can show the parent of a compound that is named as a salt. Where two headings read alike, the source gives them in different places.

Key:
Format in all cases: biochemical
[1] = molecular target: β-N-Acetylhexosaminidase (HL60); test: β-N-Acetylhexosaminidase (HL60) inhibition; conditions: for IC50: β-N-Acetylhexosaminidase (β-GlcNAcase); for Inhibition % at 1000 μM: β-N-Acetylhexosaminidase
Method: (§1) With rat intestinal maltase as an exception, other enzymes were purchased from Sigma-Aldrich Chemical Co. (St. Louis, MO, USA). Brush border membranes prepared from rat small intestine according to the method of Kessler et al. were assayed at pH 6.8 for rat intestinal maltase using maltose. The released D-glucose was determined colorimetrically using the Glucose CII-test Wako (Wako Pure Chemical Ind.; Osaka, Japan). Other glycosidase activities were determined using an appropriate p-nitrophenyl glycoside as substrate in a buffer solution at the optimal pH value of each enzyme. The reaction was stopped by adding 400 mM Na2CO3. The released p-nitrophenol was measured spectrometrically at 400 nm.

[2] = molecular target: α-L-Rhamnosidase (P. decumbens); test: α-L-Rhamnosidase (P. decumbens) inhibition
Method: as §1

[3] = molecular target: T1, β-Glucuronidase (E. coli) (Escherichia coli, UniProt P05804); test: β-Glucuronidase (E. coli) inhibition
T1 construct: purchased Sigma-Aldrich Chemical Co
T1 sequence (P05804 whole entry): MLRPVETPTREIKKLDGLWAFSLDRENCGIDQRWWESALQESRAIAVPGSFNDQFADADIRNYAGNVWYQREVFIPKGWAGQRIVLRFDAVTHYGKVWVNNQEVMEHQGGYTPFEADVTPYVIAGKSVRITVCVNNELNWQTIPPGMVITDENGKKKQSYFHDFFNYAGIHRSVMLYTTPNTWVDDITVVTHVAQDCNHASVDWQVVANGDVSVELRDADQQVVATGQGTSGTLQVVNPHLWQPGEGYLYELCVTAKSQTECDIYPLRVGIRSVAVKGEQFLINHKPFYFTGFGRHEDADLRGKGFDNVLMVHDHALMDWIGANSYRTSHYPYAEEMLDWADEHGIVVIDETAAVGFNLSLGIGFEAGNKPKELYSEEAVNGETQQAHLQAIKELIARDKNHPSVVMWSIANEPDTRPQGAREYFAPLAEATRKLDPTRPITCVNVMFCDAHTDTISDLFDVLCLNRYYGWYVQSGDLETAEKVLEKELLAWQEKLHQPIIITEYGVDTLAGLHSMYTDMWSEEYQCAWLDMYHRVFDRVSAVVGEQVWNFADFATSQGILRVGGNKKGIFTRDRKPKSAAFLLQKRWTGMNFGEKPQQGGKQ
Method: as §1

[4] = molecular target: T2, α-L-Fucosidase (Bovine kidney) (Bos taurus, UniProt Q2KIM0); test: α-L-Fucosidase (bovine kidney) inhibition
T2 construct: purchased Sigma-Aldrich Chemical Co; host or cells: bovine kidney
T2 sequence (Q2KIM0 23-468): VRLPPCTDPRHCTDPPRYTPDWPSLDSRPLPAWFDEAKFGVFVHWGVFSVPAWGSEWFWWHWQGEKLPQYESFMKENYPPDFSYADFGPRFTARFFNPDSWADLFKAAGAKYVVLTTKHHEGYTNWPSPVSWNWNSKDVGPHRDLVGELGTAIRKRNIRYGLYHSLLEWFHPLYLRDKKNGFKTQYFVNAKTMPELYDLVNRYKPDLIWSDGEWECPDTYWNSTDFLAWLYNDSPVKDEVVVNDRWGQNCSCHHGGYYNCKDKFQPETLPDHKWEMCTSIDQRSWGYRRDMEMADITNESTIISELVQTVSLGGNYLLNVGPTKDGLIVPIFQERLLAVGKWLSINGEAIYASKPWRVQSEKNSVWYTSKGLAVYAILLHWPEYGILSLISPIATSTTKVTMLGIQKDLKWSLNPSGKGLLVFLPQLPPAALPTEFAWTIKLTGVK
Method: as §1

[5] = molecular target: T3, α-Mannosidase (Jack bean) (Canavalia ensiformis, UniProt C0HJB3); test: α-Mannosidase (Jack bean) inhibition
T3 construct: purchased Sigma-Aldrich Chemical Co
T3 sequence (C0HJB3 1-981): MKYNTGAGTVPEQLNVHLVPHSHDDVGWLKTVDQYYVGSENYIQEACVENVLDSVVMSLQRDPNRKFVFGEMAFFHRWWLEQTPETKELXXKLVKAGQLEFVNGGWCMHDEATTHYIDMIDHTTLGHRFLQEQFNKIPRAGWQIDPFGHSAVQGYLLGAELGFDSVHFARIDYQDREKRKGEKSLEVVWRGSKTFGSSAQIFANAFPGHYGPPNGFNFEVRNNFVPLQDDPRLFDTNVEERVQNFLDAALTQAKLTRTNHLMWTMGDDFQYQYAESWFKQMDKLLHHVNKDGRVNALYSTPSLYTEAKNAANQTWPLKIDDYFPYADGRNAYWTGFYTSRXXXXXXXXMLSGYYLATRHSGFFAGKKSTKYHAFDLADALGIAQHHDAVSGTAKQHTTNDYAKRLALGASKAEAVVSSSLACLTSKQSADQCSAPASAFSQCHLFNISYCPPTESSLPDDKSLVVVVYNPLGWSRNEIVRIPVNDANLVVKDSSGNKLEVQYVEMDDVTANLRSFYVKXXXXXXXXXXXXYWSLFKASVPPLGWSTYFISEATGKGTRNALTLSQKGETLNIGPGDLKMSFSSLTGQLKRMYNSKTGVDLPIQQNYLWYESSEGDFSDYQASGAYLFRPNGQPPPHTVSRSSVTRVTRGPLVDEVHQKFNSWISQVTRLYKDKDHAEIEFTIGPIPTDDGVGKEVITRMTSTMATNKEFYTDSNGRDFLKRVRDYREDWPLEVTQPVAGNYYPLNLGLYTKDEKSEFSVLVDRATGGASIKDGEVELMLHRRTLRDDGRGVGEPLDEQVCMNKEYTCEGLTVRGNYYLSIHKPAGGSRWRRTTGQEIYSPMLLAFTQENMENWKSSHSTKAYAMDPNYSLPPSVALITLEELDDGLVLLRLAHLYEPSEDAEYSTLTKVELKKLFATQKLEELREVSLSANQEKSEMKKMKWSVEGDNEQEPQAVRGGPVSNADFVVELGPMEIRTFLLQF
Method: as §1

[6] = molecular target: T4, α,α-Trehalase (Porcine kidney) (Sus scrofa, UniProt I3LIR5); test: α,α-Trehalase (porcine kidney) inhibition
T4 construct: purchased Sigma-Aldrich Chemical Co; host or cells: porcine kidney
T4 sequence (I3LIR5 24-583): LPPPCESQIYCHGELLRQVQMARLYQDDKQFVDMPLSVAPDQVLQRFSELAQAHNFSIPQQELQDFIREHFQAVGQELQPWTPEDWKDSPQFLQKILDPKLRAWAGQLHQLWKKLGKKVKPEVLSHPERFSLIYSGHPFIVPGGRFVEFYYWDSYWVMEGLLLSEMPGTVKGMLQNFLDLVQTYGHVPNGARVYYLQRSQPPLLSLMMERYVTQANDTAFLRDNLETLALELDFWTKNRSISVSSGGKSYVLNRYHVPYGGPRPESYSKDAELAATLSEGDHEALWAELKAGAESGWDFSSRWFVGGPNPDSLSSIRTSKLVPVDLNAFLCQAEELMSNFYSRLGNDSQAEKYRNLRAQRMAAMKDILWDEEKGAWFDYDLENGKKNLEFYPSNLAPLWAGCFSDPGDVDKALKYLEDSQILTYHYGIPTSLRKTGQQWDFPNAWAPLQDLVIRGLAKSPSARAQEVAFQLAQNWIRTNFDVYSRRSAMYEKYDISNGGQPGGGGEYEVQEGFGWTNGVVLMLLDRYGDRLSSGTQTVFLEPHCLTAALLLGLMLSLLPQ
Method: as §1

[7] = molecular target: β-N-Acetylgalactosaminidase (HL60); test: β-N-Acetylgalactosaminidase (HL60) inhibition
Method: as §1

α-Glucosidase (Yeast) = α-Glucosidase (Yeast) (Saccharomyces cerevisiae, UniProt P53341); test: α-Glucosidase (yeast) inhibition
Sequence of α-Glucosidase (Yeast) (P53341 whole entry): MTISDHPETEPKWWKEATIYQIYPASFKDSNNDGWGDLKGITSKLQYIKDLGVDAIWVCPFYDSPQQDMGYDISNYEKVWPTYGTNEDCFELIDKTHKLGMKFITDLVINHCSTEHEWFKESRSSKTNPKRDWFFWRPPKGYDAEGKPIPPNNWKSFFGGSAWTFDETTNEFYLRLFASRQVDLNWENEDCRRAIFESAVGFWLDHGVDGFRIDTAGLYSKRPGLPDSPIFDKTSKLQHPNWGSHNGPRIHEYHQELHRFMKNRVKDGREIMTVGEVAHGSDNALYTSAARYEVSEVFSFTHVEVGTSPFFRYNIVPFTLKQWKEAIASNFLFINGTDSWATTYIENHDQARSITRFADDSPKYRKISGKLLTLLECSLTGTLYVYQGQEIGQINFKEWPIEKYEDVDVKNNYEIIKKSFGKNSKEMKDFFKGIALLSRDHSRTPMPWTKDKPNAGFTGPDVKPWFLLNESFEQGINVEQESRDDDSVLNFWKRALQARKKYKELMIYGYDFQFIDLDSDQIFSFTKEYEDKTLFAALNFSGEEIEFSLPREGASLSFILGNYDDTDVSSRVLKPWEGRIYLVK
Method: as §1

[8] = 1000 μM, read-out: Inhibition % at 1000 μM
[9] = read-out: Inhibition % at 1000 μM
[10] = α-Glucosidase, Yeast, read-out: IC50

| Structure (SMILES) | IC50 ([1]; read-out: IC50) [µM] | IC50 [2] | Inhibition % at 1000 μM [2] [%] | inhibition at 1000 µM [3, 8] [%] | inhibition at 1000 µM ([3]; read-out: IC50) [%] | inhibition at 1000 µM [4, 8] [%] | inhibition at 1000 µM ([4]; read-out: IC50) [%] | inhibition at 1000 µM [5, 8] [%] | inhibition at 1000 µM ([5]; read-out: IC50) [%] | inhibition at 1000 µM [6, 8] [%] | inhibition at 1000 µM ([6]; read-out: IC50) [%] | IC50 ([7]; read-out: IC50) [µM] | IC50 [1] | Inhibition % at 1000 μM [1] [%] | IC50 [7] | Inhibition % at 1000 μM [7] [%] | inhibition at 1000 µM (α-Glucosidase (Yeast); [9]) [%] | inhibition at 1000 µM (α-Glucosidase (Yeast); [10]) [%] | further results |
| --- | --- | --- | --- | --- | --- | --- | --- | --- | --- | --- | --- | --- | --- | --- | --- | --- | --- | --- | --- |
| CC(=O)NC[C@H]1N[C@H](CO)[C@@H](O)[C@@H]1O [4·HCl, 1-N-acetylamino-2,5-imino-1,2,5-trideoxy-D-mannitol hydrochloride] | 34 | NI (No Inhibition (less than 50% at 1000 μM)) | 6.5 | 0.6 | < 50 | 1.5 | < 50 | 0 | < 50 | 20.3 | < 50 | 9.5 |  |  |  |  |  |  | IC50 (α-Glucosidase (Yeast); α-Glucosidase, Yeast): 450 µM |
| CC(=O)NC[C@@H]1N[C@@H](CO)[C@H](O)[C@H]1O [A-10, 1-N-acetylamino-2,5-imino-1,2,5-trideoxy-L-mannitol hydrochloride] |  | NI (No Inhibition (less than 50% at 1000 μM)) | 10.1 | 0 | < 50 | 0 | < 50 | 0 | < 50 | 4.3 | < 50 |  | NI (No Inhibition (less than 50% at 1000 μM)) | 12.7 | NI (No Inhibition (less than 50% at 1000 μM)) | 13.0 | 0.5 | < 50 |  |
| CC(=O)NC[C@@H]1N[C@@H](CO)[C@@H](O)[C@H]1O [C-10, 1-N-acetylamino-2,5-imino-1,2,5-trideoxy-L-altritol hydrochloride] |  | NI (No Inhibition (less than 50% at 1000 μM)) | 3.6 | 0.3 | < 50 | 4.9 | < 50 | 0.4 | < 50 | 0 | < 50 |  | NI (No Inhibition (less than 50% at 1000 μM)) | 3.9 | NI (No Inhibition (less than 50% at 1000 μM)) | 1.4 | 0 | < 50 |  |
| CC(=O)NC[C@H]1N[C@H](CO)[C@H](O)[C@@H]1O [D-10, 1-N-acetylamino-2,5-imino-1,2,5-trideoxy-D-altritol hydrochloride] | 10 | NI (No Inhibition (less than 50% at 1000 μM)) | 8.3 | 0 | < 50 | 1.7 | < 50 |  |  | 0 | < 50 | 8.8 |  |  |  |  | 0 | < 50 | IC50 [5]: 205 µM |
| CC(=O)NC[C@H]1N[C@@H](CO)[C@@H](O)[C@@H]1O [E-10a, 1-N-acetylamino-2,5-imino-1,2,5-trideoxy-D-glucitol hydrochloride] | 591 | NI (No Inhibition (less than 50% at 1000 μM)) | 11.8 | 0 | < 50 | 41.7 | < 50 | 0.7 | < 50 | 5.6 | < 50 | 490 |  |  |  |  | 0 | < 50 |  |
| CC(=O)NC[C@@H]1N[C@@H](CO)[C@@H](O)[C@@H]1O [E-10b, 1-N-acetylamino-2,5-imino-1,2,5-trideoxy-L-iditol hydrochloride] |  | NI (No Inhibition (less than 50% at 1000 μM)) | 30.8 | 0 | < 50 | 20.5 | < 50 | 3.8 | < 50 | 0 | < 50 |  | NI (No Inhibition (less than 50% at 1000 μM)) | 4.5 | NI (No Inhibition (less than 50% at 1000 μM)) | 10.1 | 0 | < 50 |  |
| CC(=O)NC[C@@H]1N[C@H](CO)[C@H](O)[C@H]1O [F-10a, 1-N-acetylamino-2,5-imino-1,2,5-trideoxy-L-glucitol hydrochloride] |  | NI (No Inhibition (less than 50% at 1000 μM)) | 5.3 | 0 | < 50 | 8.4 | < 50 | 0 | < 50 | 3 | < 50 |  | NI (No Inhibition (less than 50% at 1000 μM)) | 0 | NI (No Inhibition (less than 50% at 1000 μM)) | 0.9 | 6.91 |  | inhibition at 1000 µM (α-Glucosidase (Yeast); read-out: IC50): < 50% |
| CC(=O)NC[C@H]1N[C@H](CO)[C@H](O)[C@H]1O [F-10b, 1-N-acetylamino-2,5-imino-1,2,5-trideoxy-D-iditol hydrochloride] |  | NI (No Inhibition (less than 50% at 1000 μM)) | 3.0 | 0 | < 50 | 3.9 | < 50 | 1.6 | < 50 | 0 | < 50 |  | NI (No Inhibition (less than 50% at 1000 μM)) | 16.6 | NI (No Inhibition (less than 50% at 1000 μM)) | 36.1 | 0 | < 50 |  |
